Some test systems named below: A549; MDA-MB-231; NCI-H226; MDA-MB-435; SF-268; OVCAR-4; OVCAR-3; PC-3; CCRF-CEM; HL-60; NCI-H522; BT-549; NCI-H460; SNB-75; 786-0; EKVX; K562; SNB-19; RPMI-8226; RXF 393.
Common to all, as to experiment: NCI anticancer screen, dose series, 48 h

Where “and” joins values, the source holds several entries; their conditions need not be identical. Equal entries are not always repeated.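 Grown in 96-well plates, cells were treated for 48 hours with each compound at five concentrations. Insufficient inhibition: endpoint recorded as highest concentration tested. GI50 marks 50% less growth.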 Calls of active or inactive are those of the source. No stated cut-off is given here; in the data, active = GI50 up to about 1.1 µM and inactive = higher.

With `COc1ccc(-c2nnc(CCCCCCCCc3nnc(-c4ccc(OC)cc4)o3)o2)cc1`, the GI50 is > 100 µM (inactive) in the assay with A549; 18.3 µM (inactive) in the assay with MDA-MB-231; > 100 µM (inactive) in the assay with NCI-H226; > 100 µM (inactive) in the assay with MDA-MB-435; > 100 µM (inactive) with SF-268; > 100 µM (inactive) with OVCAR-4. Moreover, the GI50 was > 100 µM (inactive) in the assay on OVCAR-3; > 100 µM (inactive) in the assay on PC-3; > 100 µM (inactive) in the assay with CCRF-CEM; > 100 µM (inactive) in the assay on HL-60; 84.3 µM (inactive) in the assay with NCI-H522; 16.7 µM (inactive) with BT-549. Further, the GI50 in the assay with NCI-H460 was > 100 µM (inactive); in the assay on SNB-75 it was 27 µM (inactive); in the assay with 786-0, 57.4 µM (inactive); in the assay with EKVX it was > 100 µM (inactive); in the assay with K562 it was > 100 µM (inactive); in the assay on SNB-19 it was 36.4 µM (inactive).

In the case of `CCN(CC)CCCNc1nncc2cc3c([nH]c4ccccc43)c(C)c12`, the GI50 in the assay on A549 was 10.8 µM (inactive); in the assay with MDA-MB-231, 4.65 µM (inactive); in the assay on NCI-H226, 11.5 µM (inactive); in the assay on MDA-MB-435, 18.2 µM (inactive); in the assay on SF-268, 8.18 µM (inactive); in the assay on OVCAR-3, 10.4 µM (inactive). In addition, the GI50 in the assay with PC-3 was 8.13 µM (inactive); in the assay on CCRF-CEM, 4.1 µM (inactive); in the assay with HL-60 it was 5.02 µM (inactive); in the assay on NCI-H522, 4.15 µM (inactive); in the assay with BT-549, 17.9 µM (inactive); in the assay on NCI-H460 it was 5.6 µM (inactive). Moreover, the GI50 in the assay on SNB-75 is 13.2 µM (inactive); in the assay on RPMI-8226, 12 µM (inactive); in the assay on 786-0, 5.53 µM (inactive); in the assay on EKVX it was 8.38 µM (inactive); with K562, 7.03 µM (inactive); in the assay with SNB-19, 12.4 µM (inactive).

As to `COC(=O)c1ccc(-c2nc(C#N)c(N)o2)cc1`, the GI50 was > 100 µM (inactive) with A549; > 100 µM (inactive) in the assay with RXF 393; 27.1 µM (inactive) in the assay on MDA-MB-231; > 100 µM (inactive) with NCI-H226; > 100 µM (inactive) with MDA-MB-435; 37.7 µM (inactive) in the assay on SF-268. For the same compound, the GI50 in the assay on OVCAR-4 was > 100 µM (inactive); in the assay with OVCAR-3 it was > 100 µM (inactive); in the assay on PC-3 it was > 100 µM (inactive); in the assay with CCRF-CEM it was > 100 µM (inactive); with NCI-H522, 39.4 µM (inactive); in the assay with BT-549, 23.8 µM (inactive). The GI50 in the assay with NCI-H460 was > 100 µM (inactive); in the assay on RPMI-8226, > 100 µM (inactive); with 786-0 it was 59.3 µM (inactive); with EKVX, > 100 µM (inactive); in the assay on K562 it was > 100 µM (inactive); in the assay on SNB-19, 34.7 µM (inactive).

With `NCCOCC(N)C(=O)O` (configuration not stated), the GI50 in the assay with A549, in the assay with RXF 393, in the assay with MDA-MB-231, with NCI-H226, in the assay with MDA-MB-435 and in the assay with SF-268 was > 100 µM (inactive) in each case. Besides, the GI50 is > 100 µM (inactive) with OVCAR-4; > 100 µM (inactive) with OVCAR-3; > 100 µM (inactive) with PC-3; > 100 µM (inactive) and > 72.8 µM (inactive) with CCRF-CEM; > 100 µM (inactive) in the assay with HL-60; > 100 µM (inactive) in the assay with NCI-H522. The GI50 in the assay on BT-549, with NCI-H460, with SNB-75, in the assay on 786-0, in the assay on EKVX and in the assay with K562 was > 100 µM (inactive) throughout. The GI50 in the assay with SNB-19 was > 100 µM (inactive).

`O=C(O)c1cc2ccccc2c(/N=N/c2c([N+](=O)[O-])cc([N+](=O)[O-])cc2S(=O)(=O)O)c1O`: the GI50 in the assay on A549, in the assay with RXF 393, in the assay with MDA-MB-231, in the assay with NCI-H226, in the assay on MDA-MB-435 and in the assay with SF-268 was > 100 µM (inactive) throughout. Moreover, the GI50 with OVCAR-4, in the assay with OVCAR-3, with PC-3, in the assay with CCRF-CEM, in the assay on NCI-H522 and in the assay on BT-549 was > 100 µM (inactive) each time. For the same compound, the GI50 in the assay on SNB-75, in the assay on RPMI-8226, in the assay with 786-0, in the assay on EKVX, in the assay on K562 and in the assay on SNB-19 was > 100 µM (inactive) throughout.

`CC(CCOc1ccc2ccc(=O)oc2c1)C1=CC(=O)C(C)(C)O1` (configuration not stated): the GI50 with A549 is 2.87 µM (inactive); in the assay on MDA-MB-231, 3.15 µM (inactive); in the assay on NCI-H226 it was 7.35 µM (inactive); in the assay with MDA-MB-435, 2.56 µM (inactive); in the assay on SF-268, 1.71 µM (inactive); with OVCAR-4, 5.73 µM (inactive). Also, the GI50 in the assay on OVCAR-3 is 3.22 µM (inactive); in the assay with PC-3 it was 4.03 µM (inactive); in the assay on CCRF-CEM, 0.499 µM (active); with HL-60, 1.85 µM (inactive); in the assay on NCI-H522, 1.51 µM (inactive); in the assay with BT-549, 2.72 µM (inactive). Further, the GI50 in the assay on NCI-H460 is 1.86 µM (inactive); with RPMI-8226, 1.95 µM (inactive); with 786-0, 2.2 µM (inactive); in the assay with EKVX it was 2.68 µM (inactive); with SNB-19 it was 3.09 µM (inactive).

In the case of `CC(=O)Oc1ccc(-c2cc3ccccc3oc2=O)cc1OC(C)=O`, the GI50 was 14.8 µM (inactive) with A549; 28.6 µM (inactive) in the assay with MDA-MB-231; 53.1 µM (inactive) with NCI-H226; 27.1 µM (inactive) with MDA-MB-435; 27.9 µM (inactive) in the assay on SF-268; 51.3 µM (inactive) with OVCAR-4. Besides, the GI50 in the assay with PC-3 was 47.5 µM (inactive); in the assay with CCRF-CEM, 5.3 µM (inactive); with HL-60, 1.89 µM (inactive); with NCI-H522 it was 3.78 µM (inactive); in the assay with BT-549 it was 35.2 µM (inactive); in the assay on NCI-H460, 22.4 µM (inactive). Besides, the GI50 was 26.9 µM (inactive) with SNB-75; 12.7 µM (inactive) in the assay on RPMI-8226; 21.7 µM (inactive) with 786-0; 21.8 µM (inactive) in the assay with EKVX; 27.5 µM (inactive) in the assay on K562; 31.6 µM (inactive) in the assay with SNB-19.

Take `CC1OC(OC2C(OC(=O)[C@]34CCC(C)(C)C[C@H]3C3=CC[C@@H]5[C@@]6(C)CC[C@H](OC7OC(CO)C(O)C(O)C7OC7OC(CO)C(O)C(O)C7O)C(C)(C)[C@@H]6CC[C@@]5(C)[C@]3(C)CC4)OCC(O)C2O)C(O)C(O)C1OC1OCC(O)C(OC2OCC(O)C(O)C2O)C1O` (some centres not stated): the GI50 in the assay on A549 was 3.01 µM (inactive) and 3.03 µM (inactive); in the assay on RXF 393 it was 9.86 µM (inactive) and 6.75 µM (inactive); in the assay on MDA-MB-231, 3.14 µM (inactive) and 2.84 µM (inactive); in the assay on NCI-H226 it was 3.57 µM (inactive) and 3.8 µM (inactive); in the assay on MDA-MB-435, 1.67 µM (inactive) and 1.94 µM (inactive); in the assay with SF-268, 6.03 µM (inactive) and 5.07 µM (inactive). For the same compound, the GI50 was 7.19 µM (inactive) and 5.41 µM (inactive) with OVCAR-4; 10.7 µM (inactive) and 6.5 µM (inactive) in the assay with OVCAR-3; 6.62 µM (inactive) and 5.32 µM (inactive) in the assay on PC-3; 11.3 µM (inactive) and 13.2 µM (inactive) in the assay with CCRF-CEM; 2.65 µM (inactive) and 2.49 µM (inactive) with NCI-H522; 3.51 µM (inactive) and 3.82 µM (inactive) in the assay on BT-549. For the same compound, the GI50 was 15.7 µM (inactive) and 17.7 µM (inactive) in the assay on NCI-H460; 7.93 µM (inactive) and 5.86 µM (inactive) in the assay with SNB-75; 3.98 µM (inactive) and 4.43 µM (inactive) in the assay with RPMI-8226; 6.67 µM (inactive) and 5.46 µM (inactive) with 786-0; 2.44 µM (inactive) and 2.97 µM (inactive) with EKVX; 4.6 µM (inactive) and 3.77 µM (inactive) in the assay on K562. Moreover, the GI50 in the assay with SNB-19 is 7.89 µM (inactive) and 7.41 µM (inactive).

As for `CC(C)=CCC(O)[C@](C)(O)[C@H]1[C@H](O)C[C@@]2(C)[C@@H]3CCc4cc(O)c(OC5OC(CO)C(O)C(O)C5O)cc4C3(C)C(=O)C[C@]12C` (some centres not stated), the GI50 with A549, with RXF 393, with MDA-MB-231, with NCI-H226, in the assay on MDA-MB-435 and in the assay on SF-268 was > 100 µM (inactive) each time. For the same compound, the GI50 in the assay on OVCAR-4, in the assay with OVCAR-3, in the assay with PC-3, with CCRF-CEM, in the assay on NCI-H522 and in the assay with BT-549 was > 100 µM (inactive) each time. The GI50 with NCI-H460, in the assay with SNB-75, in the assay on 786-0, in the assay on EKVX, in the assay with K562 and in the assay with SNB-19 was > 100 µM (inactive) throughout.

Regarding `COc1ccc2nc3ccccc3c(NCCCCCN(CCCl)CCCl)c2c1`, the GI50 in the assay on A549 is < 0.0308 µM (active); in the assay with MDA-MB-231 it was 0.257 µM (active); with NCI-H226, 0.101 µM (active); in the assay with MDA-MB-435, 0.17 µM (active); in the assay on SF-268, 0.0383 µM (active); in the assay on OVCAR-4 it was 0.0658 µM (active). Besides, the GI50 in the assay on OVCAR-3 was 0.0675 µM (active); in the assay with PC-3 it was 0.0469 µM (active); in the assay on CCRF-CEM it was 0.0151 µM (active); in the assay on HL-60, < 0.0157 µM (active); in the assay on NCI-H522, 0.0267 µM (active); in the assay with BT-549, 0.643 µM (active). For the same compound, the GI50 was < 0.01 µM (active) with NCI-H460; 0.0462 µM (active) with SNB-75; 0.0317 µM (active) with RPMI-8226; 0.0218 µM (active) in the assay with 786-0; 0.485 µM (active) with EKVX; 0.0229 µM (active) with K562. Further, the GI50 with SNB-19 was 0.0427 µM (active).
